Counter-ions that a name gives are not always drawn.

The target of the first test is PAF receptor (Oryctolagus cuniculus, UniProt G1TEI7). Put plainly: PAF receptor binding assay: inhibition of specific [3H]C18-PAF binding to rabbit platelet membranes. The following applies: 0.6 nM [3H]C18-PAF, 60 min, 22-23 °C, Ki from IC50 (Cheng and Prusoff), read-out: Ki (PAF Receptor Binding Activity). The method, boiled down: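 Rabbit platelet membranes (10 μg protein) incubated 60 min at 22-23 °C with 0.6 nM [3H]C18-PAF in TME buffer pH 7.0 plus 0.25% BSA; nonspecific binding with 1 μM PAF. Filtered bound radioactivity counted; IC50 by point-to-point evaluation from ≥4 doses in triplicate, Ki by Cheng-Prusoff.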
PAF receptor, sequence (G1TEI7 1-342): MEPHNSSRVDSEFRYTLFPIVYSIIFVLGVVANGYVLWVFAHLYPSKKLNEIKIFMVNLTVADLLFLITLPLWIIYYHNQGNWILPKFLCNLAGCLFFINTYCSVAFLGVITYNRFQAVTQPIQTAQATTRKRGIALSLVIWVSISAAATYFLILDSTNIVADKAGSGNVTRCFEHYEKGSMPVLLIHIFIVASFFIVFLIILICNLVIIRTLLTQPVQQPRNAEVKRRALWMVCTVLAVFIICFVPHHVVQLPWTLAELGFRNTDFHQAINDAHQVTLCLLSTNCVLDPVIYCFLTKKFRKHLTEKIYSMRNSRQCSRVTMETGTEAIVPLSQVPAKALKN
For the compound `CC(C)(C)OC(=O)n1cc(C(=O)C2CSC(c3cccnc3)N2)c2ccc(OCc3ccccc3)cc21` (centres unmarked) [Example 35, 1-tert-butoxycarbonyl-6-phenylmethoxy-3-[2-(3-pyridinyl)thiazolid-4-oyl]indole oxalate], the Ki (as a rule, a dissociation constant, usually derived from enzyme kinetics or from competition with a known ligand) was 1 nM.
The same measure, in the same setting: then `CN(C(=O)n1cc(C(=O)C2CSC(c3cccnc3)N2)c2ccccc21)c1ccccc1` (centres unmarked) [Example 49, 1-(N-methyl, N-phenyl)-3-[2-(3-pyridinyl)thiazolid-4-oyl]indole], with 25 nM.
The same measure, in the same setting: next, `CCS(=O)(=O)n1cc(C(=O)C2CSC(c3cccnc3)N2)c2ccc(OCc3ccccc3)cc21` (centres unmarked) [Example 73, 1-ethylsulfonyl-3-[2-(3-pyridinyl)thiazolid-4-oyl]-6-phenylmethoxyindole]: 8 nM; `CN(C)C(=O)n1cc(C(=O)C2CSC(c3cccnc3)N2)c2ccc(-c3ccccc3)cc21` (centres unmarked) [Example 87, 1-dimethylcarbamoyl-3-[2-(3-pyridinyl)thiazolid-4-oyl]-6-phenylindole]: 4 nM; `O=C(c1c[nH]c2cc(-c3ccccc3)ccc12)C1CSC(c2cccnc2)N1` (centres unmarked) [Example 86, 3-[2-(3-pyridinyl)-thiazolid-4-oyl]-6-phenylindole]: 15 nM.
On the same count and under the same terms, then `CN(C)C(=O)n1cc(C(=O)C2C[S+]([O-])C(c3cccnc3)N2C=O)c2ccccc21` (centres unmarked) [Example 95, 1-dimethylcarbamoyl-3-[1-oxide,2-(3,pyridinyl)-3-formylthiazolid-4-oyl]indole], with 3300 nM.
Take `O=C(c1cn(S(=O)(=O)c2ccccc2)c2ccccc12)C1CSC(c2cccnc2)N1` (centres unmarked) [Example 36, 1-phenylsulfonyl-3-[2-(3-pyridinyl)thiazolid-4-oyl]indole]: the Ki came to 30 nM.
Still for that read-out and setting: next, `O=C(c1c[nH]c2cccc(OCc3ccccc3)c12)C1CSC(c2cccnc2)N1` (centres unmarked) [Example 24, 3-[2-(3-pyridinyl)thiazolid-4-oyl-4-phenylmethoxyindole oxalate]: 13 nM.
As for `Cc1c(C(=O)C2CSC(c3cccnc3)N2)c2ccccc2n1C(=O)N1CCOCC1` (centres unmarked) [Example 64, 1-(1-morpholinocarbonyl)-2-methyl-3-[2-(3-pyridinyl)thiazolid-4-oyl]indole], the inhibitory constant (Ki) worked out at 88 nM.
Still for that read-out and setting: then `CN(C)C(=O)n1cc(C(=O)C2CSC(c3cccnc3)N2C(N)=O)c2ccccc21` (centres unmarked) [Example 110, 1-dimethylcarbamoyl-3-[2-(3-pyridinyl)-3-carbamoylthiazolid-4-oyl]indole], with 1400 nM; and “1-ethoxycarbonyl-3-[2-(3-pyridinyl)thiazolid-4-oyl]indole oxalate [Example 41]”, with 4 nM.
Consider `CC(C)(C)OC(=O)n1cc(C(=O)C2CSC(c3cccnc3)N2C(N)=O)c2ccccc21` (centres unmarked) [Example 58, 1-tert-butoxycarbonyl-3-[2-(3-pyridinyl)-3-carbamoylthiazolid-4-oyl]indole], for which the Ki came to 540 nM.
Still for that read-out and setting: next, `O=C(C1CSC(c2cccnc2)N1)n1ccc2ccc(OCc3ccccc3)cc21` (centres unmarked) [Example 18, 1-(2-(3-pyridinyl)thiazolid-4-oyl)-6-phenylmethoxyindole oxalate]: 52 nM.
Take `O=C(c1c[nH]c2cc(C#Cc3ccccc3)ccc12)C1CSC(c2cccnc2)N1` (centres unmarked) [Example 77, 3-[2-(3-pyridinyl)thiazolid-4-oyl]-6-phenylethynylindole]: the inhibition constant Ki amounted to 9 nM.
On the same count and under the same terms, next, `Cc1[nH]c2cc(OCc3ccccc3)ccc2c1C(=O)C1CSC(c2cccnc2)N1` (centres unmarked) [Example 79, 2-methyl-3-[2-(3-pyridinyl)thiazolid-4-oyl]-6-phenylmethoxyindole]: 16 nM; `Cc1c(C(=O)C2CSC(c3cccnc3)N2)c2ccccc2n1C(=O)N(C)C` (centres unmarked) [Example 65, 1-dimethylcarbamoyl-2-methyl-3-[2-(3-pyridyl)thiazolid-4-oyl]indole]: 9 nM.
Still for that read-out and setting: then `Cc1ccc2c(C(=O)C3CSC(c4cccnc4)N3C=O)cn(C(=O)N(C)C)c2c1` (centres unmarked) [Example 94, 1-dimethylcarbamoyl-3-[2-(3-pyridinyl)-3-formylthiazolid-4-oyl]-6-methylindole], with 33 nM; and `CN(C)C(=O)n1cc(C(=O)C2CSC(c3cccnc3)N2)c2ccc(Cl)cc21` (centres unmarked) [Example 89, 1-dimethylcarbamoyl-3-[2-(3-pyridinyl)thiazolid-4-oyl]-6-chloroindole], with 1 nM.

The same test, now with this note: Ki (PAF Receptor Binding Activity), 0.6 nM [3H]C18-PAF, 60 min, 22-23 °C, Ki from IC50 (Cheng and Prusoff).
Turning to `COC(=O)CCn1cc(C(=O)C2CSC(c3cccnc3)N2)c2ccccc21` (centres unmarked) [Example 118, 1-carbomethoxyethyl-3-[2-(3-pyridinyl)thiazolid-4-oyl]indole], the inhibition constant (Ki) worked out at 5 nM.
On the same count and under the same terms, next, `N#Cc1ccc2c(ccn2C(=O)C2CSC(c3cccnc3)N2)c1` (centres unmarked) [Example 10, 1-[2-(3-pyridinyl)thiazolid-4-oyl]-5-cyanoindole dihydrochloride]: 2100 nM; `O=C(c1cc2ccccc2[nH]1)C1CSC(c2cccnc2)N1` (centres unmarked) [Example 115, 2-[2-(3-pyridinyl)thiazolid-4-oyl]indole]: 155 nM; `Cc1[nH]c2ccccc2c1C(=O)C1CSC(c2cccnc2)N1` (centres unmarked) [Example 39]: 23 nM.
On the same count and under the same terms, then `O=C(c1c[nH]c2ccccc12)C1CSC(c2cccnc2)N1` (centres unmarked) [Example 20, 3-[2-(3-pyridinyl)thiazolid-4-oyl]indole oxalate], with 4 nM.
The same measure, in the same setting: then `Cn1cc(C(=O)C2CSC(c3cccnc3)N2)c2ccccc21` (centres unmarked) [Example 22, 1-methyl-3-[2-3-pyridinyl)thiazolid-4-oyl]indole dihydrochloride], with 13 nM.
In turn, `COC(=O)c1ccc2c(C(=O)C3CSC(c4cccnc4)N3)c[nH]c2c1` (centres unmarked) [Example 122, 3-[2-(3-pyridinyl)thiazolid-4-oyl]-6-carbomethoxyindole] registered a Ki of 400 nM.
Still for that read-out and setting: then `CCOC(=O)Cn1cc(C(=O)C2CSC(c3cccnc3)N2)c2ccccc21` (centres unmarked) [Example 60, 1-ethoxycarbonylmethyl-3-[2-(3-pyridinyl)thiazolid-4-oyl]indole], with 2 nM.

Values taken from patent publication US5382670A, “Platelet activating factor antagonists” (priority 1993, dated 1995).
